This is an account of results in patent US20230286958A1, “PLASMA KALLIKREIN INHIBITORS” (Merck Sharp & Dohme LLC, priority 2020, published 2023).

For one experiment, the target named is Human plasma kallikrein (Homo sapiens (Human), UniProt P03952). In words: Kallikrein Assay (fluorogenic substrate Acetyl-K-P-R-AFC). To be noted: Plasma Kallikrein (PKal). The experiment is classed as biochemical. The gist of the method: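 Ki is derived from IC50 with the Cheng-Prusoff equation, and IC50 from the inflection point of a four-parameter logistic curve. The rate of AFC release is read with 0.5 nM purified enzyme and […] substrate at room temperature or 37 °C.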

In another experiment the target is human Factor XIa (Homo sapiens (Human), UniProt P03951). Kind of experiment: Factor XIa Assay (fluorogenic substrate GPR-AFC). To be noted: Factor XIa (FXIa). The experiment is classed as biochemical.
human Factor XIa, sequence (P03951 388-625 limits assumed): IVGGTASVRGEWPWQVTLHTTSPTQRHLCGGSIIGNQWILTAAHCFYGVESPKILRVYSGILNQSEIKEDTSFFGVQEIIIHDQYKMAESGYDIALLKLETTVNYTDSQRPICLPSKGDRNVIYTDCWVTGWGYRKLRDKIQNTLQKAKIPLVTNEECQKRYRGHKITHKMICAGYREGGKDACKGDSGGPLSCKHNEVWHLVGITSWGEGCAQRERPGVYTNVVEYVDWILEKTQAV
human Factor XIa, sequence (P03951 19-387 partner limits assumed): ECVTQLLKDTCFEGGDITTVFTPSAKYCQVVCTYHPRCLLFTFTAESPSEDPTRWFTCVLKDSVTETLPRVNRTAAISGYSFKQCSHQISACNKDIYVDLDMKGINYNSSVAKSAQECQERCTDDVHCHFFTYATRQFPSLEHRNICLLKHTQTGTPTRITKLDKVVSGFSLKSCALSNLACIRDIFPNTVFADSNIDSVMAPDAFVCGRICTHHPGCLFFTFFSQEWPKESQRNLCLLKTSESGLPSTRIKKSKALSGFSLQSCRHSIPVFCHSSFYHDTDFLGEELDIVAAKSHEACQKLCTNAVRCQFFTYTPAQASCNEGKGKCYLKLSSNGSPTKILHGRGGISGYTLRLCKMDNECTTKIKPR

Human plasma kallikrein, sequence (P03952 391-638): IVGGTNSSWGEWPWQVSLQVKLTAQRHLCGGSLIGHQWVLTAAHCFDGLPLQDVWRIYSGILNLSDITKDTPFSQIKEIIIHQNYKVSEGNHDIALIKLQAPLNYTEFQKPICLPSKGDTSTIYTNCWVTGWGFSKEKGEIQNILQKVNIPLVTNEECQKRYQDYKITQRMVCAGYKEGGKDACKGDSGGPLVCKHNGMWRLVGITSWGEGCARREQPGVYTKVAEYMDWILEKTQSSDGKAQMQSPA
Human plasma kallikrein, sequence (P03952 20-390 partner): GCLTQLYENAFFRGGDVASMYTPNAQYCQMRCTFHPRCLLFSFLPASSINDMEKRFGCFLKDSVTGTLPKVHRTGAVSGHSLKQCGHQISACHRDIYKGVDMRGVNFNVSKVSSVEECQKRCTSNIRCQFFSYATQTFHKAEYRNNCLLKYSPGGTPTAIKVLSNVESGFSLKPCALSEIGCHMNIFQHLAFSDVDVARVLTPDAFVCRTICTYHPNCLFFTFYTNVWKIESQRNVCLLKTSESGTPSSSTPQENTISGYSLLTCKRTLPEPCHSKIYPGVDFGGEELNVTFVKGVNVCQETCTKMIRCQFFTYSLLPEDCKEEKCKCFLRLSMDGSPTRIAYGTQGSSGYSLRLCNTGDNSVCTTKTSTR

Regarding `Cc1c(C(C)n2cc(NC(=O)c3nc(-c4c(C(F)F)ccc(Cl)c4F)cnc3CO)cn2)cnc(N2C[C@H]3C[C@H]3C2=O)c1C` (single isomer, unassigned) [Example 201, 6-(3-Chloro-6-(difluoromethyl)-2-fluorophenyl)-N-(1-((S or R)-1-(4,5-dimethyl-6-((1R,5S)-2-oxo-3-azabicyclo[3.1.0]hexan-3-yl)pyridin-3-yl)ethyl)-1H-pyrazol-4-yl)-3-(hydroxymethyl)pyrazine-2-carboxamide], the IC50 against Human plasma kallikrein is 0.4 nM; against human Factor XIa it was 52 nM.
For `COc1ncc(-c2c(OC(F)F)ccc(Cl)c2F)nc1C(=O)Nc1cnn(C(C)c2cnc(N3C[C@H]4C[C@H]4C3=O)c(C)n2)c1` (single isomer, unassigned) [Example 240, 6-(3-Chloro-6-(difluoromethoxy)-2-fluorophenyl)-3-methoxy-N-(1-((R or S)-1-(6-methyl-5-((1R,5S)-2-oxo-3-azabicyclo[3.1.0]hexan-3-yl)pyrazin-2-yl)ethyl)-1H-pyrazol-4-yl)pyrazine-2-carboxamide] the same measures were 0.4 nM and 985 nM.
Turning to `CCc1ncc(-c2c(C(F)F)ccc(Cl)c2F)nc1C(=O)Nc1cnn(C(C)c2cc(C)c(N3C[C@H]4C[C@H]4C3=O)nn2)c1` (single isomer, unassigned) [Example 238, 6-(3-Chloro-6-(difluoromethyl)-2-fluorophenyl)-3-ethyl-N-(1-((R or S)-1-(5-methyl-6-((1R,5S)-2-oxo-3-azabicyclo[3.1.0]hexan-3-yl)pyridazin-3-yl)ethyl)-1H-pyrazol-4-yl)pyrazine-2-carboxamide], the results for the IC50 on Human plasma kallikrein and on human Factor XIa were 6.3 nM and 734 nM, respectively.
For `Cc1ccc(Cl)c(F)c1-c1cncc(C(=O)Nc2cnn(C(C)c3cnc(N4C[C@H]5C[C@H]5C4=O)nc3C)c2)n1` (single isomer, unassigned) [Example 108, 6-(3 -Chloro-2-fluoro-6-methylphenyl)-N-(1-((S or R)-1-(4-methyl-2-((1R,5S)-2-oxo-3-azabicyclo[3.1.0]hexan-3-yl)pyrimidin-5-yl)ethyl)-1H-pyrazol-4-yl)pyrazine-2-carboxamide] the same measures were 16.6 nM and above 10000 nM.
For `Cc1cc(C(C)n2cc(NC(=O)c3nc(-c4c(C(F)F)ccc(Cl)c4F)cnc3C(C)O)cn2)cnc1N1C[C@H]2C[C@H]2C1=O` (single isomer, unassigned) [Example 211, 6-(3-Chloro-6-(difluoromethyl)-2-fluorophenyl)-3-((R or S)-1-hydroxyethyl)-N-(1-((S or R)-1-(5-methyl-6-((1R,5S)-2-oxo-3-azabicyclo[3.1.0]hexan-3-yl)pyridin-3-yl)ethyl)-1H-pyrazol-4-yl)pyrazine-2-carboxamide] the same measures were 0.6 nM and 50 nM.
On to `Cc1ncc(-c2c(C(F)F)ccc(Cl)c2F)nc1C(=O)Nc1cnn(C(CO)c2cnc(N3C[C@H]4C[C@H]4C3=O)nc2)c1` (single isomer, unassigned) [Example 164, 6-(3-Chloro-6-(difluoromethyl)-2-fluorophenyl)-N-(1-((R or S)-2-hydroxy-1-(2-((1R,5S)-2-oxo-3-azabicyclo[3.1.0]hexan-3-yl)pyrimidin-5-yl)ethyl)-1H-pyrazol-4-yl)-3-methylpyrazine-2-carboxamide], for which the IC50 at Human plasma kallikrein was found to be 5.4 nM; at human Factor XIa it was 4890 nM.
For `Cc1nc(N2C[C@@H]3C[C@@H]3C2=O)ncc1Cn1cc(NC(=O)c2nc(-c3c(C(F)F)ccc(Cl)c3F)cnc2C)cn1` [Example 34, 6-(3-Chloro-6-(difluoromethyl)-2-fluorophenyl)-3-methyl-N-(1-((4-methyl-2-((1S,5R)-2-oxo-3-azabicyclo[3.1.0]hexan-3-yl)pyrimidin-5-yl)methyl)-1H-pyrazol-4-yl)pyrazine-2-carboxamide] the same measures were 19.3 nM and 2890 nM.
For `Cc1nc(C2(n3cc(NC(=O)c4nc(-c5c(C(F)F)ccc(Cl)c5F)cnc4COC(C)(C)C)cn3)CC2)cnc1N1C[C@H]2C[C@H]2C1=O` [Example 222, 3-(tert-Butoxymethyl)-6-(3-chloro-6-(difluoromethyl)-2-fluorophenyl)-N-(1-(1-(6-methyl-5-((1R,5S)-2-oxo-3-azabicyclo[3.1.0]hexan-3-yl)pyrazin-2-yl)cyclopropyl)-1H-pyrazol-4-yl)pyrazine-2-carboxamide] the same measures were 16.7 nM and above 10000 nM.
On to `CC(c1cnc(N2C[C@H]3C[C@H]3C2=O)c(C(F)F)c1)n1cc(NC(=O)c2cncc(-c3c(C(F)F)ccc(Cl)c3F)n2)cn1` (single isomer, unassigned) [Example 78, 6-(3-Chloro-6-(difluoromethyl)-2-fluorophenyl)-N-(1-((R or S)-1-(5-(difluoromethyl)-6-((1R,5S)-2-oxo-3-azabicyclo[3.1.0]hexan-3-yl)pyridin-3-yl)ethyl)-1H-pyrazol-4-yl)pyrazine-2-carboxamide], for which the figures for the IC50 on Human plasma kallikrein and at human Factor XIa were 2.7 nM and above 10000 nM, respectively.
Turning to `Cc1ccc(Cl)c(F)c1-c1cnc(C)c(C(=O)Nc2cnn(Cc3nnc(N4C[C@H]5C[C@H]5C4=O)c(C)c3C)c2)n1` [Example 112, 6-(3 -Chloro-2-fluoro-6-methylphenyl)-N-(1-((4,5-dimethyl-6-((1R,5S)-2-oxo-3-azabicyclo[3.1.0]hexan-3-yl)pyridazin-3-yl)methyl)-1H-pyrazol-4-yl)-3-methylpyrazine-2-carboxamide], the IC50 against Human plasma kallikrein was determined as 4.8 nM; against human Factor XIa, 1200 nM.
For `Cc1ncc(-c2c(C(F)F)ccc(Cl)c2F)nc1C(=O)Nc1cnn(C(C)c2cnc(N3C[C@H]4C[C@H]4C3=O)c3c2OC(F)(F)O3)c1` (single isomer, unassigned) [Example 247, 6-(3-Chloro-6-(difluoromethyl)-2-fluorophenyl)-N-(1-((S or R)-1-(2,2-difluoro-4-((1R,5S)-2-oxo-3-azabicyclo[3.1.0]hexan-3-yl)-[1,3]dioxolo[4,5-c]pyridin-7-yl)ethyl)-1H-pyrazol-4-yl)-3-methylpyrazine-2-carboxamide] the same measures were 0.8 nM and 9240 nM.
With `Cc1nc(N2C[C@H]3C[C@H]3C2=O)ncc1C1(n2cc(NC(=O)c3nc(-c4c(C(F)F)ccc(Cl)c4F)cnc3C)cn2)CCC1` [Example 188, 6-(3-Chloro-6-(difluoromethyl)-2-fluorophenyl)-3-methyl-N-(1-(1-(4-methyl-2-((1R,5S)-2-oxo-3-azabicyclo[3.1.0]hexan-3-yl)pyrimidin-5-yl)cyclobutyl)-1H-pyrazol-4-yl)pyrazine-2-carboxamide], the IC50 was 6.5 nM against Human plasma kallikrein and 3110 nM at human Factor XIa.
Taken in the same sequence, the figures for `Cc1nc(Cn2cc(NC(=O)c3nc(-c4c(C(F)F)ccc(Cl)c4F)cnc3C(F)F)cn2)cnc1N1C[C@H]2C[C@H]2C1=O` [Example 94, 6-(3-Chloro-6-(difluoromethyl)-2-fluorophenyl)-3-(difluoromethyl)-N-(1-((6-methyl-5-((1R, 5S)-2-oxo-3-azabicyclo[3.1.0]hexan-3-yl)pyrazin-2-yl)methyl)-1H-pyrazol-4-yl)pyrazine-2-carboxamide] were 1.6 nM and 1010 nM.
Taken in the same sequence, the figures for `Cc1ncc(-c2c(C(F)F)ccc(Cl)c2F)nc1C(=O)Nc1cnn([C@H](C)c2cnc(N3C[C@H]4C[C@H]4C3=O)c(O)c2)c1` [Example 216, 6-(3-Chloro-6-(difluoromethyl)-2-fluorophenyl)-N-(1-((R)-1-(5-hydroxy-6-((1R,5S)-2-oxo-3-azabicyclo[3.1.0]hexan-3-yl)pyridin-3-yl)ethyl)-1H-pyrazol-4-yl)-3-methylpyrazine-2-carboxamide] were 2.8 nM and 8420 nM.
For the molecule `[2H]C1([2H])C2CC2C(=O)N1c1ncc([C@H](C)n2cc(NC(=O)c3nc(-c4c(C(F)F)ccc(Cl)c4F)cnc3C)cn2)c(C)n1` (single isomer, unassigned) [Example 179, 6-(3-Chloro-6-(difluoromethyl)-2-fluorophenyl)-3-methyl-N-(1-((S)-1-(4-methyl-2-((1S,5R or 1R,5S)-2-oxo-3-azabicyclo[3.1.0]hexan-3-yl-4,4-d2)pyrimidin-5-yl)ethyl)-1H-pyrazol-4-yl)pyrazine-2-carboxamide], the IC50 on Human plasma kallikrein is 0.7 nM; on human Factor XIa it was 1820 nM.
Taken in the same sequence, the figures for `CC(c1ccc(N2CC3CC3C2=O)nc1)n1cc(NC(=O)c2cncc(-c3c(C(F)F)ccc(Cl)c3F)n2)cn1` (single isomer, unassigned) [Example 11, 6-(3-Chloro-6-(difluoromethyl)-2-fluorophenyl)-N-(1-((R or S)-1-(6-((1R,5S or 1S,5R)-2-oxo-3-azabicyclo[3.1.0]hexan-3-yl)pyridin-3-yl)ethyl)-1H-pyrazol-4-yl)pyrazine-2-carboxamide] were 17.2 nM and above 10000 nM.
Taken in the same sequence, the figures for `Cc1ncc(-c2c(C(F)F)ccc(Cl)c2F)nc1C(=O)Nc1cnn(C(CO)c2ccc(N3CC4CC4C3=O)nc2)c1` (single isomer, unassigned) [Example 162, 6-(3-chloro-6-(difluoromethyl)-2-fluorophenyl)-N-(1-((S or R)-2-hydroxy-1-(6-((1S,5R or 1R,5S)-2-oxo-3-azabicyclo[3.1.0]hexan-3-yl)pyridin-3-yl)ethyl)-1H-pyrazol-4-yl)-3-methylpyrazine-2-carboxamide] were 8.7 nM and 3450 nM.
`CC(c1cnc(N2CC3CC3C2=O)nc1)n1cc(NC(=O)c2cncc(-c3c(OC(F)F)ccc(Cl)c3F)n2)cn1` (single isomer, unassigned) [Example 73, 6-(3-Chloro-6-(difluoromethoxy)-2-fluorophenyl)-N-(1-((S or R)-1-(2-((1S,5R or 1R,5S)-2-oxo-3-azabicyclo[3.1.0]hexan-3-yl)pyrimidin-5-yl)ethyl)-1H-pyrazol-4-yl)pyrazine-2-carboxamide]: the figures for the IC50 at Human plasma kallikrein and against human Factor XIa were 23.1 nM and 2270 nM, respectively.
